What was measured:
22Rv1 cells = assay: cAMP accumulation in prostate cancer cells; assay type: cell-based, human; conditions: concentration-response, Fig. 1E; 22Rv1 express high levels of SV1
Experimental: (§1) Spodoptera frugiperda (Sf9) insect cells (Expression Systems) were grown in ESF 921 serum-free medium (Expression Systems) at 27 °C and 120 rpm. HEK293T cells were purchased from American Type Culture Collection (ATCC), cultured in Dulbecco’s modified Eagle’s medium (DMEM; Life Technologies), supplemented with 10% fetal bovine serum (FBS; Gibco), and maintained in a humidified chamber with 5% CO2 at 37 °C. The PC3 prostate cancer cell line (ATCC) was cultured in F12 medium supplemented with 10% FBS and maintained in a humidified chamber with 5% CO2 at 37 °C. 22Rv1 and LNCaP human prostate cancer cells (ATCC) were cultured in Roswell Park Memorial Institute (RPMI)-1640 medium supplemented with 10% FBS and maintained in a humidified atmosphere containing 5% CO2 at 37 °C.
(§2) GHRH-stimulated cAMP accumulation was measured by a LANCE Ultra cAMP kit (PerkinElmer). Briefly, HEK293T cells (24 h after transfection with SV1 or GHRHR) or prostate cancer cells were digested by 0.2% (wt/vol) EDTA and washed once with Dulbecco’s phosphate-buffered saline (PBS). Cells were then resuspended with stimulation buffer (Hanks’ balanced salt solution [HBSS] supplemented with 5 mM HEPES, 0.5 mM IBMX, and 0.1% [wt/vol] bovine serum albumin [BSA], pH 7.4) to a density of 0.6 million cells per milliliter and added to 384-well white plates (3,000 cells per well). […] The reaction was stopped by adding 5 μL Eu-cAMP tracer and 5 μL ULight-anti-cAMP. After 1 h RT incubation, TR-FRET signals (excitation: 320 nm, emission: 615 and 665 nm) were measured by an Envision plate reader (PerkinElmer). cAMP concentrations were interpolated by a standard curve.

PC3 cells = assay: cAMP accumulation in prostate cancer cells; assay type: cell-based, human; conditions: concentration-response, Fig. 1E; PC3 low expression of both
Experimental: as §1, §2

LNCaP cells = assay: cAMP accumulation in prostate cancer cells; assay type: cell-based, human; conditions: concentration-response, Fig. 1E; LNCaP express high levels of GHRHR
Experimental: as §1, §2

[1] = system: GHRHR ECD mutants (L34, L62, F82, F85 to alanine); assay: cAMP accumulation, ECD alanine mutants of GHRHR; assay type: cell-based, human; conditions: any or all of four ECD residues (L34, L62, F82, F85) to alanine; HEK293T
Experimental: as §2

GHRHR F82A = molecular target: T1, GHRHR F82A (Homo sapiens, UniProt Q02643, F82A); assay: cAMP accumulation; assay type: cell-based; conditions: Table S2, mean ± SEM
T1 construct: expressed in transfected cells; host or cells: HEK293T
Experimental: as §2
(§3) All functional study data were analyzed using Prism 7 (GraphPad) and presented as means ± SEM from at least three independent experiments. Concentration-response curves were evaluated with a three-parameter logistic equation. The significance was determined with either two-tailed Student’s t test or one-way ANOVA, and P < 0.05 is considered statistically significant.
(§4) Table S2. Effects of residue mutation or truncation in the ECD of GHRHR on GHRH-induced cAMP […]
(§5) Mutant pEC50 Emax (% WT GHRHR) expression ΔLog (τ/KA) […]
(§6) cAMP accumulation data were analyzed using a three-parameter logistic equation to determine pEC50 and Emax values. pEC50 is the negative logarithm of the molar concentration of agonist that induced half the maximal response. Emax for mutants is expressed as a percentage of the WT GHRHR. Data were analyzed by nonlinear regression using the operational model equation to determine t he logR values (logτ/KA, i.e., logarithm of the transduction ratio). τ is the effi cacy value of the agonist and was corrected by cell surface expression of the receptor. KA is dissociation constant. Changes in transduction ratio (ΔlogR) were calculated to determine the relative effectiveness of the mutants. All values are means ± S.E.M. of at le ast three ind ep en dent experiments (n = 3-5) conducted in quadruplicate. Statistical analysis was carried out by comparing the control responses in the WT GHRHR. **, P < 0.01 and ***, P < 0.001, determined by one-way

[2] = molecular target: T2, GHRHR L34A-L62A-F82A-F85A (Homo sapiens, UniProt Q02643, F82A/F85A/L34A/L62A); assay: cAMP accumulation; assay type: cell-based; conditions: Table S2, mean ± SEM
T2 construct: expressed in transfected cells; host or cells: HEK293T
Experimental: as §2, §3, §4, §5, §6

GHRHR Δ92 = molecular target: T3, GHRHR Δ92 (Homo sapiens, UniProt Q02643); assay: cAMP accumulation; assay type: cell-based; conditions: Table S2, mean ± SEM
T3 construct: expressed in transfected cells; host or cells: HEK293T
Experimental: as §2, §3, §4, §5, §6

GHRHR Δ82 = molecular target: T4, GHRHR Δ82 (Homo sapiens, UniProt Q02643); assay: cAMP accumulation; assay type: cell-based; conditions: Table S2, mean ± SEM
T4 construct: expressed in transfected cells; host or cells: HEK293T
Experimental: as §2, §3, §4, §5, §6

GHRHR Δ52 = molecular target: T5, GHRHR Δ52 (Homo sapiens, UniProt Q02643); assay: cAMP accumulation; assay type: cell-based; conditions: Table S2, mean ± SEM
T5 construct: expressed in transfected cells; host or cells: HEK293T
Experimental: as §2, §3, §4, §5, §6

GHRHR Δ102 = molecular target: T6, GHRHR Δ102 (Homo sapiens, UniProt Q02643); assay: cAMP accumulation; assay type: cell-based; conditions: Table S2, mean ± SEM
T6 construct: expressed in transfected cells; host or cells: HEK293T
Experimental: as §2, §3, §4, §5, §6

GHRHR Δ42 = molecular target: T7, GHRHR Δ42 (Homo sapiens, UniProt Q02643); assay: cAMP accumulation; assay type: cell-based; conditions: Table S2, mean ± SEM
T7 construct: expressed in transfected cells; host or cells: HEK293T
Experimental: as §2, §3, §4, §5, §6

GHRHR L34A = molecular target: T8, GHRHR L34A (Homo sapiens, UniProt Q02643, L34A); assay: cAMP accumulation; assay type: cell-based; conditions: Table S2, mean ± SEM
T8 construct: expressed in transfected cells; host or cells: HEK293T
Experimental: as §2, §3, §4, §5, §6

GHRHR Δ112 = molecular target: T9, GHRHR Δ112 (Homo sapiens, UniProt Q02643); assay: cAMP accumulation; assay type: cell-based; conditions: Table S2, mean ± SEM
T9 construct: expressed in transfected cells; host or cells: HEK293T
Experimental: as §2, §3, §4, §5, §6

GHRHR L62A = molecular target: T10, GHRHR L62A (Homo sapiens, UniProt Q02643, L62A); assay: cAMP accumulation; assay type: cell-based; conditions: Table S2, mean ± SEM
T10 construct: expressed in transfected cells; host or cells: HEK293T
Experimental: as §2, §3, §4, §5, §6

GHRHR Δ72 = molecular target: T11, GHRHR Δ72 (Homo sapiens, UniProt Q02643); assay: cAMP accumulation; assay type: cell-based; conditions: Table S2, mean ± SEM
T11 construct: expressed in transfected cells; host or cells: HEK293T
Experimental: as §2, §3, §4, §5, §6

[3] = HEK-293T, HEK293T, n = 3-5 in quadruplicate
[4] = operational model, τ corrected by cell surface expression, relative to WT GHRHR

T8 sequence (Q02643 23-423 L34A): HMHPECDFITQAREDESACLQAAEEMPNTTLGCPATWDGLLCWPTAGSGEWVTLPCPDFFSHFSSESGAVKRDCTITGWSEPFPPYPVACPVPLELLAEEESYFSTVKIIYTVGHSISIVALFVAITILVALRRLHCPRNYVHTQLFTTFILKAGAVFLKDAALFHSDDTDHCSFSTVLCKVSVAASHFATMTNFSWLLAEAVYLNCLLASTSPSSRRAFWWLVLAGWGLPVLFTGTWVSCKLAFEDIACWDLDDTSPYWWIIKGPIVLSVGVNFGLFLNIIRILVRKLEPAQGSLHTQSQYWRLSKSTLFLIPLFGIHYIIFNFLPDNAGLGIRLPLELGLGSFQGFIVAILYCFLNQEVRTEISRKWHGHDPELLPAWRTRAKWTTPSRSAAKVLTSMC
T11 sequence (Q02643 73-423 limits assumed, stated change not applied): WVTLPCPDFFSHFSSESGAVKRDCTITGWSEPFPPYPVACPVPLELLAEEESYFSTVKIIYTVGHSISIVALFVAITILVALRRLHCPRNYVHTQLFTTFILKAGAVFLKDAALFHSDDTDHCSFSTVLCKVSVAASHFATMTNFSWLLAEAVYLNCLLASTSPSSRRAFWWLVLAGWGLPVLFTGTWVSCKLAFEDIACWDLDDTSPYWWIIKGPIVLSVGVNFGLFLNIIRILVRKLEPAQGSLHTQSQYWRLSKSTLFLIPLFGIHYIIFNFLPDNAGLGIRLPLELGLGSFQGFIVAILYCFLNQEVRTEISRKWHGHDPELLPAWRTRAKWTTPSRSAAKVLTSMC
T1 sequence (Q02643 23-423 F82A): as the sequence (Q02643 23-423 L34A) above, with A12L, F60A counted along it
T10 sequence (Q02643 23-423 L62A): as the sequence (Q02643 23-423 L34A) above, with A12L, L40A counted along it
T5 sequence (Q02643 53-423 limits assumed, stated change not applied): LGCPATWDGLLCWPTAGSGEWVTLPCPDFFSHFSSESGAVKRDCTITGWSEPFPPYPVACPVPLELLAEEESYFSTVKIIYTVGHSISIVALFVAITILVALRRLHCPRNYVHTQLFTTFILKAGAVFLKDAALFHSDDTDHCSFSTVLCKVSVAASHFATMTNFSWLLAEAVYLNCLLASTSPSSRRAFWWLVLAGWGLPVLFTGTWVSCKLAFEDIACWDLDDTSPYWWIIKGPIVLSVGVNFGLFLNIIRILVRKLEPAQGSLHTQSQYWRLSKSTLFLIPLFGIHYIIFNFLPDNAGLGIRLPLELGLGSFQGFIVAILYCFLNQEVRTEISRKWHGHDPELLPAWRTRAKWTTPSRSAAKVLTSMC
T4 sequence (Q02643 83-423 limits assumed, stated change not applied): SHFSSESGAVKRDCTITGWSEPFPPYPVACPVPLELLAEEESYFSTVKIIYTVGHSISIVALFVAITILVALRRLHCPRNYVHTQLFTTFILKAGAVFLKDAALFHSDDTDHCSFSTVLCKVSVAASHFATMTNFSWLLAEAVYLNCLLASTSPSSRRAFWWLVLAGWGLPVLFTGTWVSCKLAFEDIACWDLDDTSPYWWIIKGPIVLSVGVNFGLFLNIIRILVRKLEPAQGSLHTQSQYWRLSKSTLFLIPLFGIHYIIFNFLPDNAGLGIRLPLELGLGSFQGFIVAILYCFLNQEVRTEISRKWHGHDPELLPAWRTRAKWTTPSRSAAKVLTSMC
T6 sequence (Q02643 103-423 limits assumed, stated change not applied): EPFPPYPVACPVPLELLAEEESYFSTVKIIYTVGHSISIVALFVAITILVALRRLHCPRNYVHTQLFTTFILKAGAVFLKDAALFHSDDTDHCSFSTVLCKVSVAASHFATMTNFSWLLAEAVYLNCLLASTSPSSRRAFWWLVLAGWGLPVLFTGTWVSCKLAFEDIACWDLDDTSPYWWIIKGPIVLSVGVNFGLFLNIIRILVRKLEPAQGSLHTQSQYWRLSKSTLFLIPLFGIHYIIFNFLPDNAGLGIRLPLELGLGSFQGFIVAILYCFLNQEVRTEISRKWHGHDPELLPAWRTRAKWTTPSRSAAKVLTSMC
T3 sequence (Q02643 93-423 limits assumed, stated change not applied): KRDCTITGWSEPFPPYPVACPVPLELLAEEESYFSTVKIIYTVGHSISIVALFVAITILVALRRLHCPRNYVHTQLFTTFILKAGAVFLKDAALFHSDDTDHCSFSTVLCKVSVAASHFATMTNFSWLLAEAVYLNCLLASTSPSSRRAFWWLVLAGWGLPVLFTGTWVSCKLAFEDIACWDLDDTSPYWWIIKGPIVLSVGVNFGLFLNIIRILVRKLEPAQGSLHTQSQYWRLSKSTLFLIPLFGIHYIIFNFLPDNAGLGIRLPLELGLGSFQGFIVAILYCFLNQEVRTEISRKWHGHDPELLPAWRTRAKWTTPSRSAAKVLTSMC
T9 sequence (Q02643 113-423 limits assumed, stated change not applied): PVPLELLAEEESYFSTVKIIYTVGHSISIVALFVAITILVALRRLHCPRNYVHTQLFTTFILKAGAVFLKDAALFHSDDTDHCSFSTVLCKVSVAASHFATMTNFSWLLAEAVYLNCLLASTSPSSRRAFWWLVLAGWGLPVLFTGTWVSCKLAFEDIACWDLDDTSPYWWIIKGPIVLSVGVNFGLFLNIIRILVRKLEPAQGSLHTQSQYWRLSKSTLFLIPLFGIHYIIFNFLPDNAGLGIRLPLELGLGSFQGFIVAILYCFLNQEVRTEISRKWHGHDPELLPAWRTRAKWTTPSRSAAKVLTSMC
T2 sequence (Q02643 23-423 L34A/L62A/F82A/F85A): as the sequence (Q02643 23-423 L34A) above, with L40A, F60A, F63A counted along it
T7 sequence (Q02643 43-423 limits assumed, stated change not applied): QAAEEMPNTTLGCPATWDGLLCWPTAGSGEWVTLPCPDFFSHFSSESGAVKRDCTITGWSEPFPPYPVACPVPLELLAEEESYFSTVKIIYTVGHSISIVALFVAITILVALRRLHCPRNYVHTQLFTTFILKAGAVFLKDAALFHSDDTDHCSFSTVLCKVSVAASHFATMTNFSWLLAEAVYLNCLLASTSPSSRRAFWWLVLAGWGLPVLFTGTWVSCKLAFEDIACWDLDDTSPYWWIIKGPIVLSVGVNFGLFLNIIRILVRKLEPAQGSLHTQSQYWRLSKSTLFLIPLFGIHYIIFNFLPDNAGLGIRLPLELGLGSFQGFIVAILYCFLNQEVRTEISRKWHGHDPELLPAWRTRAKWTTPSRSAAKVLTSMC

CC[C@H](C)[C@H](NC(=O)[C@H](C)NC(=O)[C@H](CC(=O)O)NC(=O)[C@H](C)NC(=O)[C@@H](N)Cc1ccc(O)cc1)C(=O)N[C@@H](Cc1ccccc1)C(=O)N[C@H](C(=O)N[C@@H](CC(N)=O)C(=O)N[C@@H](CO)C(=O)N[C@@H](Cc1ccc(O)cc1)C(=O)N[C@@H](CCCNC(=N)N)C(=O)N[C@@H](CCCCN)C(=O)N[C@H](C(=O)N[C@@H](CC(C)C)C(=O)NCC(=O)N[C@@H](CCC(N)=O)C(=O)N[C@@H](CC(C)C)C(=O)N[C@@H](CO)C(=O)N[C@@H](C)C(=O)N[C@@H](CCCNC(=N)N)C(=O)N[C@@H](CCCCN)C(=O)N[C@@H](CC(C)C)C(=O)N[C@@H](CC(C)C)C(=O)N[C@@H](CCC(N)=O)C(=O)N[C@@H](CC(=O)O)C(=O)N[C@H](C(=O)N[C@@H](CCSC)C(=O)N[C@@H](CO)C(=O)N[C@@H](CCCNC(=N)N)C(=O)N[C@@H](CCC(N)=O)C(=O)N[C@@H](CCC(N)=O)C(=O)NCC(=O)N[C@@H](CCC(=O)O)C(=O)N[C@@H](CO)C(=O)N[C@@H](CC(N)=O)C(=O)N[C@@H](CCC(N)=O)C(=O)N[C@@H](CCC(=O)O)C(=O)N[C@@H](CCCNC(=N)N)C(=O)NCC(=O)N[C@@H](C)C(=O)N[C@@H](CCCNC(=N)N)C(=O)N[C@@H](C)C(=O)N[C@@H](CCCNC(=N)N)C(=O)N[C@@H](CC(C)C)C(N)=O)[C@@H](C)CC)C(C)C)[C@@H](C)O [GHRH, growth hormone–releasing hormone]
cAMP response (22Rv1 cells): either markedly reduced or marginal cAMP responses | cAMP response (PC3 cells): either markedly reduced or marginal cAMP responses | cAMP response (LNCaP cells): strongest cAMP response | GHRHR-elicited cAMP responses [1]: reduced GHRHR-elicited cAMP responses | Emax (GHRHR F82A; [3]): 99.8 ± 1.36% | ΔLog (τ/KA) (GHRHR F82A; [4]): -0.53 ± 0.05 | Emax [2, 3]: 105 ± 5.52% | ΔLog (τ/KA) [2, 4]: -4.07 ± 0.04 | Emax (GHRHR Δ92; [3]): 106 ± 2.38% | ΔLog (τ/KA) (GHRHR Δ92; [4]): -3.78 ± 0.03 | Emax (GHRHR Δ82; [3]): 104 ± 2.51% | ΔLog (τ/KA) (GHRHR Δ82; [4]): -3.14 ± 0.03 | Emax (GHRHR Δ52; [3]): 106 ± 1.62% | ΔLog (τ/KA) (GHRHR Δ52; [4]): -2.83 ± 0.03 | Emax (GHRHR Δ102; [3]): 107 ± 2.15% | ΔLog (τ/KA) (GHRHR Δ102; [4]): -3.55 ± 0.02 | Emax (GHRHR Δ42; [3]): 104 ± 1.53% | ΔLog (τ/KA) (GHRHR Δ42; [4]): -2.86 ± 0.02 | Emax (GHRHR L34A; [3]): 101 ± 2.23% | ΔLog (τ/KA) (GHRHR L34A; [4]): -0.78 ± 0.06 | Emax (GHRHR Δ112; [3]): 106 ± 2.34% | ΔLog (τ/KA) (GHRHR Δ112; [4]): -3.65 ± 0.02 | Emax (GHRHR L62A; [3]): 98 ± 2% | ΔLog (τ/KA) (GHRHR L62A; [4]): -1.03 ± 0.04 | Emax (GHRHR Δ72; [3]): 104 ± 2.57% | ΔLog (τ/KA) (GHRHR Δ72; [4]): -2.98 ± 0.04
